Measurements reported in US11344559B2, “PI3KGAMMA inhibitors” (The Regents of the University of California, priority 2019, dated 2022).

Legend:
Assay type in all cases: cell-based
[1] = system: IL12b protein levels; test: Secondary screening: IL12b protein ELISA in M1 polarized bone marrow derived macrophages; settings: Z score of IL12b protein (ELISA); 1 μM compound, 24 h, IFNg+LPS (M1) polarized bone marrow derived macrophages
Experimental: (§1) Primary screening was performed on 507 compounds identified by the above-described computational screening. Bone marrow derived macrophages were plated into 96 well plates at d7 post-harvest and incubated with 1 μM compound and polarization reagents for 24 h. Primary screening was performed on cells polarized with interferon gamma (IFNg)+Lipopolysaccharide (LPS) (M1 polarization). Methods of inducing macrophage polarization are known in the art, e.g., as described in Mosser et al., Curr. Protoc. Immunol. 2008 November; Chapter 14:Unit 14.2. doi: 10.1002/0471142735.im1402s83. After 24 h, cell supernatants were removed and screened for IL12b and CCL2 protein levels using an enzyme linked immunosorbent assay (ELISA). Additionally, viability of polarized macrophages incubated with compounds was measured using an MTT assay, a colorimetric assay that measures cell metabolic activity by quantifying NAD(P)H-dependent cellular oxidoreductase reduction of the tetrazolium dye MTT 3-(4,5-dimethylthiazol-2-yl)-2,5-diphenyltetrazolium bromide to its insoluble purple colored formazan. Compounds that increased IL12b protein levels or decreased CCL2 protein levels and reduced viability less than 10% were selected for secondary screening. Secondary screening was performed as described for primary screening with a subset of 141 of the original compounds.

[2] = system: IL-1beta expression; test: RNA screening: IL-1beta expression in M1 (IFNg+LPS) polarized macrophages, quantitative RT-PCR; set-up: key: −: significant decrease in mRNA vs control (mRNA levels above 50% of control); −−: significant decrease in mRNA vs control (mRNA levels below 50% of control); +: significant increase in mRNA vs control; =: no significant change vs control; settings: mRNA vs control; 1 μM compound 1 h before IFNgamma+LPS (M1) polarization, mRNA harvested 6 h post-stimulation
Experimental: (§2) Compounds with the highest activity levels in the primary and secondary screening assays were tested for their effects on transcription of inflammatory cytokines after M1 (IFNg+LPS) and M2 (IL-4) macrophage polarization. Bone marrow derived macrophages were plated into 12 well plates at d7 post-harvest and incubated for 1 h with 1 μM compound prior to polarization. Cell were then polarized by the addition of either IFNgamma+LPS (M1) or IL-4 (M2) and mRNA was harvested 6 h post-stimulation. Quantitative RT-PCR was used to determine the levels of IL-1beta expression in M1 polarized macrophages and of Arginase-1 and TGF-beta expression in M2 polarized macrophages. Compounds were selected from RNA screening that increased IL-1beta expression or decreased Arginase-1 or TGF-beta expression.

[3] = system: IL12b protein levels; test: IL12b protein expression (ELISA) after M1 polarization with bulk synthesized compounds; settings: 10 micromolar compound 1 h before IFNgamma+LPS (M1) polarization, supernatants 24 h post-stimulation, read-out: IL12B protein expression (Percent of Control)
Experimental: Compounds with the highest activity levels in the primary, secondary and tertiary screening assays were resynthesized in bulk and then tested for their effects on protein expression of inflammatory cytokines after M1 (IFNg+LPS) macrophage polarization. Bone marrow derived macrophages were plated into 12 well plates at d7 post-harvest and incubated for 1 h with 10 micromolar compound prior to polarization in the presence of bulk synthesized compounds 1-14. Cells were then polarized by the addition of either IFNgamma+LPS (M1) and cell supernatants were harvested 24 h post-stimulation. Methods of inducing macrophage polarization are known in the art, e.g., as described in Mosser et al., Curr. Protoc. Immunol. 2008 November; Chapter 14:Unit 14.2. doi: 10.1002/0471142735.im1402s83. After 24 h, cell supernatants were removed and screened for IL12b protein levels using an enzyme linked immunosorbent assay (ELISA). Increases in IL12b protein levels induced by compounds were recorded as percent increase in IL12b protein expression compared to IL12b expression in the absence of compounds.

[4] = system: TGF-beta expression; test: RNA screening: TGF-beta expression in M2 (IL-4) polarized macrophages, quantitative RT-PCR; set-up: key: −: significant decrease in mRNA vs control (mRNA levels above 50% of control); −−: significant decrease in mRNA vs control (mRNA levels below 50% of control); +: significant increase in mRNA vs control; =: no significant change vs control; settings: mRNA vs control; 1 μM compound 1 h before IL-4 (M2) polarization, mRNA harvested 6 h post-stimulation
Experimental: as §2

[5] = system: Arginase-1 expression; test: RNA screening: Arginase-1 expression in M2 (IL-4) polarized macrophages, quantitative RT-PCR; settings: Macrophage; mRNA vs control; 1 μM compound 1 h before IL-4 (M2) polarization, mRNA harvested 6 h post-stimulation; read-out: RNA Screening IL-4 Arg 1
Experimental: as §2

[6] = system: CCL2 protein levels; test: Primary screening: CCL2 protein ELISA in M1 polarized bone marrow derived macrophages; settings: Z score of CCL2 protein (ELISA); 1 μM compound, 24 h, IFNg+LPS (M1) polarized bone marrow derived macrophages
Experimental: as §1

[7] = system: IL12b protein levels; test: Primary screening: IL12b protein ELISA in M1 polarized bone marrow derived macrophages; settings: Z score of IL12b protein (ELISA); 1 μM compound, 24 h, IFNg+LPS (M1) polarized bone marrow derived macrophages
Experimental: as §1

[8] = system: CCL2 protein levels; test: Secondary screening: CCL2 protein ELISA in M1 polarized bone marrow derived macrophages; settings: Z score of CCL2 protein (ELISA); 1 μM compound, 24 h, IFNg+LPS (M1) polarized bone marrow derived macrophages
Experimental: as §1

| Compound | Secondary Screen ZIL12b [1] | RNA Screening Ifng + LPS Il1b [2] | activity at 10 µM [3] [%] | RNA Screening IL-4 Tgfb [4] | mrna remaining at 1 µM [5] [%] | Primary Screen ZCCL2 [6] | Primary Screen ZIL12b [7] | Secondary Screen ZCCL2 [8] |
| --- | --- | --- | --- | --- | --- | --- | --- | --- |
| CC(=O)N1CCN(Cc2cnn(-c3ccccc3Cl)c2)CC(O)C1 (stereo not shown) [Compound 10, 1-acetyl-4-{[1-(2-chlorophenyl)-1H-pyrazol-4-yl]methyl}-1,4-diazepan-6-ol] | 1.64 | = | 121 | −− (significant decrease in mRNA vs control (mRNA levels below 50% of control)) | < 50 | −1.59 | 0.55 | −0.36 |
| O=C(O)CCc1cc2n(n1)CCCN(Cc1c[nH]nc1C(=O)O)C2 [Compound 16, 4-((2-(2-carboxyethyl)-7,8-dihydro-4H-pyrazolo[1,5-a][1,4]diazepin-5(6H)-yl)methyl)-1H-pyrazole-3-carboxylic acid] | 0.56 | + |  |  | < 50 |  |  | −0.84 |
| CC(=O)N1CC2(CCN(S(C)(=O)=O)CC2)CC1C(=O)O (stereo not shown) [Compound 8, 2-acetyl-8-(methylsulfonyl)-2,8-diazaspiro[4.5]decane-3-carboxylic acid] | 0.74 |  | 118 |  |  | −3.6 | 0.13 | −1.79 |
| CCc1n[nH]c(SCC(=O)N2CCC3(CC2)CC(C(=O)O)N(C)C3)n1 (stereo not shown) [Compound 12, 8-{[(3-ethyl-1H-1,2,4-triazol-5-yl)thio]acetyl}-2-methyl-2,8-diazaspiro[4.5]decane-3-carboxylic acid] |  |  | 133 |  |  |  |  |  |
| CCc1n[nH]c(SCC(=O)NCCC(=O)Nc2nccs2)n1 [Compound 3, 3-({[(3-ethyl-1H-1,2,4-triazol-5-yl)thio]acetyl}amino)-N-1,3-thiazol-2-ylpropanamide] | 1.56 | = |  | = | > 50 |  |  | 1.33 |
| COc1cccc2ccc(-c3ccc(N)nc3)nc12 [Compound 2, 5-(8-methoxyquinolin-2-yl)pyridin-2-amine] | 0.81 | + |  | − (significant decrease in mRNA vs control (mRNA levels above 50% of control)) | > 50 |  |  | 0.8 |
| OCCc1cn(C2CCN(Cc3cccnc3)CC2)nn1 [Compound 11, 2-{1-[1-(3-pyridinylmethyl)-4-piperidinyl]-1H-1,2,3-triazol-4-yl}ethanol] | 2.04 | + | 127 | − (significant decrease in mRNA vs control (mRNA levels above 50% of control)) | < 50 | −2.99 | −1.17 | −1.46 |
| CCCn1cc(NC(=O)NCc2nn(C)c3ccc(C)cc23)nn1 [Compound 1, N-[(1,5-dimethyl-1H-indazol-3-yl)methyl]-N′-(1-propyl-1H-1,2,3-triazol-4-yl)urea] | 1.05 |  | 134 |  |  | −1.85 | 0.93 | −0.72 |
| CC(C)NC(=O)NCC1CCCN(Cc2ccc3c(c2)OCCO3)C1 (stereo not shown) [Compound 6, N-{[1-(2,3-dihydro-1,4-benzodioxin-6-ylmethyl)piperidin-3-yl]methyl}-N′-isopropylurea] | 2.4 | + | 120 | − (significant decrease in mRNA vs control (mRNA levels above 50% of control)) | > 50 | 0.94 | 1.96 | 0.16 |
| CC(=O)N1CCCn2nc(CNc3nc4ccccc4s3)cc2C1 [Compound 5, N-[(5-acetyl-5,6,7,8-tetrahydro-4H-pyrazolo[1,5-a][1,4]diazepin-2-yl)methyl]-1,3-benzothiazol-2-amine] | 0.72 |  | 127 |  |  | 1.04 | 1.64 | −1.33 |
| CCC(=O)N1CCC(c2ccc3c(c2)OCO3)C(O)C1 (stereo not shown) [Compound 15, 1-(4-(benzo[d][1,3]dioxol-5-yl)-3-hydroxypiperidin-1-yl)propan-1-one] | 0.25 | + |  |  | < 50 |  |  | −0.95 |
| CNc1ncccc1C(=O)N1CCC2(CC1)CC(C(=O)O)N(C)C2 (stereo not shown) [Compound 14, 2-methyl-8-{[2-(methylamino)-3-pyridinyl]carbonyl}-2,8-diazaspiro[4.5]decane-3-carboxylic acid] |  |  | 122 |  |  |  |  |  |
| CCc1cc(NCCc2csc(N)n2)n2nc(C)c(C)c2n1 [Compound 4, N-[2-(2-amino-1,3-thiazol-4-yl)ethyl]-5-ethyl-2,3-dimethylpyrazolo[1,5-a]pyrimidin-7-amine] | 0.58 |  | 92 |  |  | 1.08 | 1.46 | −1.61 |
| CC(O)c1cn(CC2CCN(C(=O)c3cscn3)CC2)nn1 (stereo not shown) [Compound 7, 1-(1-{[1-(1,3-thiazol-4-ylcarbonyl)-4-piperidinyl]methyl}-1H-1,2,3-triazol-4-yl)ethanol] | 1.58 | + | 114 | −− (significant decrease in mRNA vs control (mRNA levels below 50% of control)) | < 50 | −1.62 | 0.38 | −1.5 |
| CN(C)c1cccc(C(=O)N2CCC3(CC2)CC(C(=O)O)N(C)C3)c1 (stereo not shown) [Compound 13, 8-[3-(dimethylamino)benzoyl]-2-methyl-2,8-diazaspiro[4.5]decane-3-carboxylic acid] |  |  | 125 |  |  |  |  |  |
